Entries after “also recorded” stand apart in the source; their conditions may differ.
What was measured:
Type in all cases: cell-based, human
[1] = system: sorted APC populations from chronic HBV patients; test: Ex vivo antigen presentation assay: sorted APCs activated overnight, co-cultured with HBsAg-specific TCR redirected T cells, IFN-γ Elispot; conditions: for cross-presentation of circulating HBsAg (T cell activation): mDC, CD14 MN, CD16 MN or B cells of chronic HBV patients, short-term activation, HBsAg-specific TCR transduced T cells
Protocol: Sorted APC populations; CD11c DC, CD141 DC, CD123 pDC, CD14 MN, CD16 MN and CD20 B cells were cultured overnight in media alone or under activating conditions +/−[…] recombinant HBsAg (Kindly provided by DynaVax). Cells were activated with 10 μg/ml polyI:C (TLR-3), 5 μM CpG ODN2216 (TLR-9), 1 μg/ml LPS (TLR-4), 5 μg/ml Imiquimod (TLR-7), 1 μg/ml ssRNA40 (TLR-8) (InvivoGen), 1000 U/ml IFN-α or 1000 U/ml IFN-γ (R&D systems). Following overnight incubation, APC populations were thoroughly washed and transferred to anti-IFN-γ coated Elispot plates and co-cultured with CD8 s183-TCR or s171-TCR redirected T cells at 5:1 E:T ratio (normally 5,000 APCs/well but as low as 1000 CD141 DC/well) for 24 h. APCs pulsed with 5 μg/ml HBs183-91(FLLTRILTI), HBs171-80 (FLGPLLVLQA) or HBc18-27 ([…]) peptide served as positive control for T cell activation. IFN-γ Elispot was performed as described previously in Tan et al 2008, using 5 μg/ml of 1-DIK for capture and 0.5 μg/ml 7B6-1-Biotin plus Streptavidin-ALP for detection (Mabtec) (Tan, A. T, Loggi, E., Boni, C., Chia, A. Gehring, A. J., Sastry, K. S., Goh, V., Fisicaro, P., Andreone, P., Brander, C., et al. 2008. Host ethnicity and virus genotype shape the hepatitis B virus-specific T-cell repertoire. J. Virol 82: 10986-10997). Elispot plates were developed and analyzed using CTL Immunospot analyzer. Cutoff values for positive responses were set according to cumulative data from healthy donors and HLA mismatched chronic HBV responses (data not shown). Wells were considered positive if responses were above 20 spot forming units/50,000 T cells.
APC populations were sorted from 7 HLA-A2+ chronic HBV patients or healthy donors to greater than 98% purity. TCR transduced T cells were then cultured at 5:1 effector:target ratio with each APC population (typically 5,000 APC/well for Elispot and 10,000 APC/well for intracellular cytokine staining) and T cell activation was monitored using IFN-γ intracellular cytokine staining or IFN-γ Elispot. For intracellular cytokine staining, cells were co-cultured overnight in V-bottom 96 well plates in 2 μg/ml brefeldin A. Cells were labeled with viability dye, stained with CD8-Horizon V500 (BD Biosciences) and fixed in cytofix/cytoperm (BD Biosciences). Cells were then stained with IFN-γ-Horizon V450 (BD Biosciences) to monitor T cell activation. As positive control, CD14 MN were pulsed with 5 μg/ml HBs183-91 or HBc18-27 peptide for 1 h and washed. IFN-γ Elispot was performed as described previously using 5 μg/ml of 1-DK1 for capture and 0.5 μg/ml 7B6-1-Biotin plus Streptavidin-ALP for detection (Mabtec). Wells were considered positive if responses were above 20 spot forming units/25,000 T cells. An HLA-A2+ healthy donor was included in each experiment to determine the background for each experiment. HLA-A2− donors were also tested to confirm specificity and restriction of the transduced T cells (data not shown).

[2] = system: CD14 MN from chronic HBV patients; test: Cross-presentation of in vivo captured HBsAg by monocyte-derived DC from chronic HBV patients, IFN-γ elispot; conditions: moDC activated overnight, s183-TCR and s171-TCR CD8 T cells
Protocol: (§1) CD14+ MN were isolated from healthy donors and chronic HBV patients by FACs sorting or positive selection using CD14 micobeads (greater than 90% purity; Miltenyi Biothech). Purified monocytes were then cultured in RPMI 1640 supplemented with 10% heat-inactivated FBS, 20 mM HEPES, 0.5 mM sodium pyruvate. 100 U/ml penicillin, 100 μg/ml streptomycin, MeM amino acids, Glutamax, MeM nonessential amino acids, 55 μM 2-mercaptoethanol (Invitrogen). GM-CSF+IL-4 moDC were made by culturing CD14 MN in 50 ng/ml (1500 U/ml) IL-4 and 50 ng/ml (750 U/ml) GM-CSF (R&D systems) for 6 d. GM-CSF+IL-15 (R&D Systems) moDC were made by culturing CD14 MN in 100 ng/ml (1500 U/ml) GM-CSF+200 ng/ml IL-15. Half of the media was removed after 3 d and replaced with complete RPMI containing cytokines. After 6 d of incubation, moDC were stained with CD14-PerCp (Miltenyi Biotech), HLA-DR alexa700 (eBioscience), CD80-FITC (BD Bioscience) and CD86-APC (Biolegend) to confirm differentiation.
(§2) Six day moDC were cultured overnight in media alone or activated with 10 μg/ml polyI:C or 0.1 ug/ml LPS (Invivogen)+50 ng/ml soluble HEK-derived CD40L (R&D Systems). Following overnight incubation, moDC were washed three times with HBSS and co-cultured at 2:1 effector:target ratio (10,000 T cells:5000 moDC) with CD8 HBs183-91T or HBs171-80-specific TCR redirected T cells for IFN-γ elispot. […]

healthy donor CD14 MN = test: Cross-presentation by healthy donor CD14 MN loaded with HBV antigen at day zero and differentiated to moDC, IFN-γ elispot; conditions: differentiation alone, antigen captured on day zero
Protocol: as §1, §2

interferon-α [IFN-α]
cross-presentation of circulating HBsAg (T cell activation) [1]: T cell activation was not observed | activation of HBsAg-specific T cells by activated pDC ex vivo ([1]; pDC of chronic HBV patients, in vivo captured HBsAg): Neither resting pDC nor pDC activated with a panel of TLR ligands and IFN-α activated HBsAg-specific T cells; also recorded: none of these conditions resulted in HBsAg-specific T cell activation

Polyinosinic-polycytidylic acid [polyI:C, reference compound]
effect of moDC activation on T cell response [2]: increase the T cell response | cross-presentation of exogenously loaded recombinant HBsAg by CD141 DC ([1]; CD141 DC loaded with rHBsAg and stimulated): efficiently cross-presented recombinant HBsAg | activation of CD8 T cells by activated CD141 DC directly ex vivo ([1]; CD141 DC of chronic HBV patients, in vivo captured HBsAg): neither non-activated nor polyI:C activated CD141 DC from chronic HBV patients stimulated CDS T cells; also recorded: neither non-activated nor polyI:C activated CD141 DC from chronic HBV patients activated CD8 T cells

granulocyte-macrophage colony-stimulating factor [GM-CSF]
cross-presentation of HBV antigen to virus-specific CD8 T cells after differentiation (healthy donor CD14 MN; 3 d): resulted in cross-presentation of HBV antigen

IFN-γ: cytokine, 1000 U/ml for APC activation
cross-presentation of circulating HBsAg (T cell activation) [1]: T cell activation was not observed

B1: IL-32: cytokine, 100 ng/ml IL-32 for 6 d (protein, UniProt P24001 31-234, looked up)
Interleukin-32: AWVSACDTEDTVGHLGPWRDKDPALWCQLCLSSQHQAIERFYDKMQNAESGRGQVMSSLAELEDDFKEGYLETVAAYYEEQHPELTPLLEKERDGLRCRGNRSPVPDVEDPATEEPGESFCDKVMRWFQAMLQRLQTWWHGVLAWVKEKVVALVHAVQALWKQFQSFCCSLSELFMSSFQSYGAPRGDKEELTPQKCSEPQSSK
cross-presentation of HBV antigen to virus-specific CD8 T cells after differentiation (healthy donor CD14 MN; 6 d): resulted in cross-presentation of HBV antigen

— patent US20140004079A1, “IN VIVO DENDRITIC CELL T[…]” (Agency for Science, Technology and Research, priority 2012, published 2014)
